Experimental findings from patent US20210025110A1, “ORGANIC ANTIMICROBIAL TEXTILE” (Livinguard AG, priority 2018, published 2021) are described below.

In one assay the test system is E. coli. The experiment in a line: AATCC 100-2012 antimicrobial performance of treated textile, E. coli. It is filed as cell-based.
A further assay deals with S. aureus ATCC 6538. As to the kind of experiment: AATCC 100-2012 antimicrobial performance of treated textile, S. aureus. It counts as cell-based, Staphylococcus aureus. The protocol: (§1) Antimicrobial performance of antimicrobial textiles according to the invention were performed following the AATCC 100-2012 test method. The AATCC 100-2012 test procedure for antimicrobial performance is described in detail in AATCC Technical Manual 2013, p. 166-168. Briefly, 3 circular swatches of 48 mm diameter were prepared from autoclaved (121° C., 15 min) textile samples, and a defined number of swatches was added to a 250 ml Erlenmeyer flask. 1 ml of prepared inoculum (in phosphate buffered water) was spot onto the swatches. […] The 0 minute contact time was immediately analyzed after inoculation. For the other contact times, the Erlenmeyer flask was sealed immediately after inoculation and incubated at 37° C. for the respective contact times. After the defined contact time, 100 ml of Dey-Engley Neutralizing broth was added to each flask, and the flask was shaken for one minute by hand. A dilution series was prepared and each dilution sample was plated on a nutrient agar. Agar plates were incubated at 37° C. for 24 and 48 hours. The Log Reduction (R) of bacteria was calculated by: B[log(number bacteria recovered from the inoculated treated test specimen swatches in the jar immediately after inoculation, i.e. at 0 contact time)]−A[log(number of bacteria recovered from the inoculated treated test specimen swatches in the jar incubated over the desired contact period)].

In a further assay the test system is P. aeruginosa ATCC 9027. The experiment in a line: AATCC 100-2012 antimicrobial performance of treated textile, P. aeruginosa. It is filed as cell-based. Here is the method:
as §1

As for `N=C(N)NCCC[C@H](N)C(=O)O` [L-arginine], the “reduction of E. coli after 24 hours” value with E. coli (Table 10, L-arginine 12% on cotton) is listed as above 99.99%. The “Log Reduction (R) after 24 hours against E. coli, wash cycle 0 (unwashed)” value in the assay on E. coli (Table 10, 100% cotton, L-arginine 120 gpl, liquor pH per sample ID, unwashed, 24 hours) is above 4.41 Log cfu/ml. Further, the “Log Reduction (R) after 1 hour, S. aureus” value in the assay on S. aureus ATCC 6538 (Table 1, 100% viscose, L-arginine, 10 washes, 1 hour contact) was “about 1 Log cfu/ml”. In addition, the “reduction of S. aureus after 1 hour” value in the assay on S. aureus ATCC 6538 (Table 1 textiles, L-arginine on viscose, 1 hour) was “about 90%”. The “Log Reduction (R) after 10 min, P. aeruginosa” value in the assay on P. aeruginosa ATCC 9027 (Table 1, 100% viscose, L-arginine, 10 washes, 10 min contact) was 2.76 Log cfu/ml. Besides, the “reduction of P. aeruginosa after 10 minutes” value with P. aeruginosa ATCC 9027 (Table 1 textiles, L-arginine on viscose, 10 min) was above 99%.

For the compound `C[N+](C)(C)C[C@H](O)CC(=O)O` [L-carnitine], the “Log Reduction (R) after 30 min, P. aeruginosa” value in the assay with P. aeruginosa ATCC 9027 (Table 2, 100% viscose, L-carnitine, 0 or 10 washes per sample ID, 30 min contact) is given as 2.82 Log cfu/ml. For the same compound, the “reduction of P. aeruginosa after 30 minutes” value in the assay on P. aeruginosa ATCC 9027 (Table 2 textiles, L-carnitine on viscose, 30 min) was above 99%.
